Source: patent US12215140B2, “Method of stabilizing protein contained in specimen and solution for stabilizing protein contained in specimen” (EIKEN KAGAKU KABUSHIKI KAISHA, priority 2018, dated 2025)

Test system: hemoglobin-haptoglobin complex
Experiment: Stability of hemoglobin (as hemoglobin-haptoglobin complex) in samples preserved at 37° C. in preservation solution containing 1 unit/L haptoglobin, Hb measured by latex agglutination method (Examples 1 to 7)
Design: species or system human
Conditions: for Hb concentration / Recovery ratio with respect to Hb concentration after 0 days: 37° C.
Procedure, shortened: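 Latex agglutination (anti-human hemoglobin rabbit polyclonal latex) measured Hb in samples stored at 37 °C up to 21 days; values expressed as % recovery versus day 0. Preservation solution: HEPES 40 mmol/L pH 6.8, BSA 0.1%, NaN3 0.1%, haptoglobin 1 unit/L, phenylboronic acid 0–100 mmol/L, optional sugars; ~300 µg/L Hb, 0.5% feces or none.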

[1] = Feces 1, sugar 50 mmol/L + phenylboronic acid 15 mmol/L, 0 days
[2] = Feces 1, sugar 50 mmol/L + phenylboronic acid 15 mmol/L, 7 days
[3] = Feces 1, sugar 50 mmol/L + phenylboronic acid 15 mmol/L, 14 days
[4] = Feces 1, sugar 50 mmol/L + phenylboronic acid 15 mmol/L, 21 days
[5] = Feces 1, sugar 100 mmol/L + phenylboronic acid 15 mmol/L, 0 days
[6] = Feces 1, sugar 100 mmol/L + phenylboronic acid 15 mmol/L, 7 days
[7] = Feces 1, sugar 100 mmol/L + phenylboronic acid 15 mmol/L, 14 days
[8] = Feces 1, sugar 100 mmol/L + phenylboronic acid 15 mmol/L, 21 days
[9] = Feces 1, sugar 100 mmol/L, no phenylboronic acid, 0 days
[10] = Feces 1, sugar 100 mmol/L, no phenylboronic acid, 7 days
[11] = Feces 1, sugar 100 mmol/L, no phenylboronic acid, 14 days
[12] = Feces 1, sugar 100 mmol/L, no phenylboronic acid, 21 days
[13] = Feces 2, sugar 50 mmol/L + phenylboronic acid 15 mmol/L, 0 days
[14] = Feces 2, sugar 50 mmol/L + phenylboronic acid 15 mmol/L, 7 days
[15] = Feces 2, sugar 50 mmol/L + phenylboronic acid 15 mmol/L, 14 days
[16] = Feces 2, sugar 50 mmol/L + phenylboronic acid 15 mmol/L, 21 days
[17] = Feces 2, sugar 100 mmol/L + phenylboronic acid 15 mmol/L, 0 days
[18] = Feces 2, sugar 100 mmol/L + phenylboronic acid 15 mmol/L, 7 days
[19] = Feces 2, sugar 100 mmol/L + phenylboronic acid 15 mmol/L, 14 days
[20] = Feces 2, sugar 100 mmol/L + phenylboronic acid 15 mmol/L, 21 days
[21] = Feces 2, sugar 100 mmol/L, no phenylboronic acid, 0 days
[22] = Feces 2, sugar 100 mmol/L, no phenylboronic acid, 7 days
[23] = Feces 2, sugar 100 mmol/L, no phenylboronic acid, 14 days
[24] = Feces 2, sugar 100 mmol/L, no phenylboronic acid, 21 days
[25] = Feces 3, sugar 50 mmol/L + phenylboronic acid 15 mmol/L, 0 days
[26] = Feces 3, sugar 50 mmol/L + phenylboronic acid 15 mmol/L, 7 days
[27] = Feces 3, sugar 50 mmol/L + phenylboronic acid 15 mmol/L, 14 days
[28] = Feces 3, sugar 50 mmol/L + phenylboronic acid 15 mmol/L, 21 days
[29] = Feces 3, sugar 100 mmol/L + phenylboronic acid 15 mmol/L, 0 days
[30] = Feces 3, sugar 100 mmol/L + phenylboronic acid 15 mmol/L, 7 days
[31] = Feces 3, sugar 100 mmol/L + phenylboronic acid 15 mmol/L, 14 days
[32] = Feces 3, sugar 100 mmol/L + phenylboronic acid 15 mmol/L, 21 days
[33] = Feces 3, sugar 100 mmol/L, no phenylboronic acid, 0 days
[34] = Feces 3, sugar 100 mmol/L, no phenylboronic acid, 7 days
[35] = Feces 3, sugar 100 mmol/L, no phenylboronic acid, 14 days
[36] = Feces 3, sugar 100 mmol/L, no phenylboronic acid, 21 days
[37] = No feces, sugar 50 mmol/L + phenylboronic acid 15 mmol/L, 0 days
[38] = No feces, sugar 50 mmol/L + phenylboronic acid 15 mmol/L, 7 days
[39] = No feces, sugar 50 mmol/L + phenylboronic acid 15 mmol/L, 14 days
[40] = No feces, sugar 50 mmol/L + phenylboronic acid 15 mmol/L, 21 days
[41] = No feces, sugar 100 mmol/L + phenylboronic acid 15 mmol/L, 0 days
[42] = No feces, sugar 100 mmol/L + phenylboronic acid 15 mmol/L, 7 days
[43] = No feces, sugar 100 mmol/L + phenylboronic acid 15 mmol/L, 14 days
[44] = No feces, sugar 100 mmol/L + phenylboronic acid 15 mmol/L, 21 days
[45] = No feces, sugar 100 mmol/L, no phenylboronic acid, 0 days
[46] = No feces, sugar 100 mmol/L, no phenylboronic acid, 7 days
[47] = No feces, sugar 100 mmol/L, no phenylboronic acid, 14 days
[48] = No feces, sugar 100 mmol/L, no phenylboronic acid, 21 days

## OC[C@H]1O[C@H](O[C@H]2O[C@H](CO)[C@@H](O)[C@H](O)[C@H]2O)[C@H](O)[C@@H](O)[C@@H]1O [Trehalose, trehalose]
[1]
  Hb concentration: 299 µg/L
  Recovery ratio with respect to Hb concentration after 0 days: 100%
[2]
  Hb concentration: 261 µg/L
  Recovery ratio with respect to Hb concentration after 0 days: 87%
[3]
  Hb concentration: 247 µg/L
  Recovery ratio with respect to Hb concentration after 0 days: 83%
[4]
  Hb concentration: 241 µg/L
  Recovery ratio with respect to Hb concentration after 0 days: 81%
[5]
  Hb concentration: 291 µg/L
  Recovery ratio with respect to Hb concentration after 0 days: 100%
[6]
  Hb concentration: 249 µg/L
  Recovery ratio with respect to Hb concentration after 0 days: 86%
[7]
  Hb concentration: 238 µg/L
  Recovery ratio with respect to Hb concentration after 0 days: 82%
[8]
  Hb concentration: 230 µg/L
  Recovery ratio with respect to Hb concentration after 0 days: 79%
[9]
  Hb concentration: 266 µg/L
  Recovery ratio with respect to Hb concentration after 0 days: 100%
[10]
  Hb concentration: 121 µg/L
  Recovery ratio with respect to Hb concentration after 0 days: 45%
[11]
  Hb concentration: 80 µg/L
  Recovery ratio with respect to Hb concentration after 0 days: 30%
[12]
  Hb concentration: 44 µg/L
  Recovery ratio with respect to Hb concentration after 0 days: 17%
[13]
  Hb concentration: 284 µg/L
  Recovery ratio with respect to Hb concentration after 0 days: 100%
[14]
  Hb concentration: 257 µg/L
  Recovery ratio with respect to Hb concentration after 0 days: 90%
[15]
  Hb concentration: 223 µg/L
  Recovery ratio with respect to Hb concentration after 0 days: 79%
[16]
  Hb concentration: 201 µg/L
  Recovery ratio with respect to Hb concentration after 0 days: 71%
[17]
  Hb concentration: 269 µg/L
  Recovery ratio with respect to Hb concentration after 0 days: 100%
[18]
  Hb concentration: 251 µg/L
  Recovery ratio with respect to Hb concentration after 0 days: 93%
[19]
  Hb concentration: 227 µg/L
  Recovery ratio with respect to Hb concentration after 0 days: 84%
[20]
  Hb concentration: 206 µg/L
  Recovery ratio with respect to Hb concentration after 0 days: 77%
[21]
  Hb concentration: 264 µg/L
  Recovery ratio with respect to Hb concentration after 0 days: 100%
[22]
  Hb concentration: 106 µg/L
  Recovery ratio with respect to Hb concentration after 0 days: 40%
[23]
  Hb concentration: 61 µg/L
  Recovery ratio with respect to Hb concentration after 0 days: 23%
[24]
  Hb concentration: 41 µg/L
  Recovery ratio with respect to Hb concentration after 0 days: 16%
[25]
  Hb concentration: 282 µg/L
  Recovery ratio with respect to Hb concentration after 0 days: 100%
[26]
  Hb concentration: 221 µg/L
  Recovery ratio with respect to Hb concentration after 0 days: 78%
[27]
  Hb concentration: 197 µg/L
  Recovery ratio with respect to Hb concentration after 0 days: 70%
[28]
  Hb concentration: 178 µg/L
  Recovery ratio with respect to Hb concentration after 0 days: 63%
[29]
  Hb concentration: 281 µg/L
  Recovery ratio with respect to Hb concentration after 0 days: 100%
[30]
  Hb concentration: 213 µg/L
  Recovery ratio with respect to Hb concentration after 0 days: 76%
[31]
  Hb concentration: 192 µg/L
  Recovery ratio with respect to Hb concentration after 0 days: 68%
[32]
  Hb concentration: 179 µg/L
  Recovery ratio with respect to Hb concentration after 0 days: 64%
[33]
  Hb concentration: 267 µg/L
  Recovery ratio with respect to Hb concentration after 0 days: 100%
[34]
  Hb concentration: 91 µg/L
  Recovery ratio with respect to Hb concentration after 0 days: 34%
[35]
  Hb concentration: 56 µg/L
  Recovery ratio with respect to Hb concentration after 0 days: 21%
[36]
  Hb concentration: 47 µg/L
  Recovery ratio with respect to Hb concentration after 0 days: 18%
[37]
  Hb concentration: 268 µg/L
  Recovery ratio with respect to Hb concentration after 0 days: 100%
[38]
  Hb concentration: 253 µg/L
  Recovery ratio with respect to Hb concentration after 0 days: 94%
[39]
  Hb concentration: 255 µg/L
  Recovery ratio with respect to Hb concentration after 0 days: 95%
[40]
  Hb concentration: 257 µg/L
  Recovery ratio with respect to Hb concentration after 0 days: 96%
[41]
  Hb concentration: 269 µg/L
  Recovery ratio with respect to Hb concentration after 0 days: 100%
[42]
  Hb concentration: 248 µg/L
  Recovery ratio with respect to Hb concentration after 0 days: 92%
[43]
  Hb concentration: 251 µg/L
  Recovery ratio with respect to Hb concentration after 0 days: 93%
[44]
  Hb concentration: 251 µg/L
  Recovery ratio with respect to Hb concentration after 0 days: 93%
[45]
  Hb concentration: 243 µg/L
  Recovery ratio with respect to Hb concentration after 0 days: 100%
[46]
  Hb concentration: 229 µg/L
  Recovery ratio with respect to Hb concentration after 0 days: 94%
[47]
  Hb concentration: 225 µg/L
  Recovery ratio with respect to Hb concentration after 0 days: 93%
[48]
  Hb concentration: 222 µg/L
  Recovery ratio with respect to Hb concentration after 0 days: 91%
Sugar 100 mmol/L, preservation solutions containing no phenylboronic acid
  recovery ratio of hemoglobin in the samples containing fecal specimens: does not improve
Sugar further added to phenylboronic acid 15 mmol/L, Feces 3
  recovery ratios: not improved
